This note sets out measurements from paper PMC3459870, “Hit-to-Lead Development of the Chamigrane Endoperoxide Merulin A for the Treatment of African Sleeping Sickness” (PLoS ONE, 2012).

Like-named read-outs stand apart in the source and are kept apart here.

In one assay the test system is HeLa cells. The assay can be described thus: HeLa toxicity screening assay (nuclei count by imaging, 17 h). Conditions: Homo sapiens, HeLa; Figure 4. Format: cell-based, human. How it is done: (§1) HeLa cells were plated at a density of 2,000 cells per well into two 384 well clear bottom plates (Costar 3712) in DMEM with 10% FBS. After 24 hours incubation at 37°C with 5% CO2 the cells were pinned with 200 nL of a two-fold serial dilution of merulin analogues. After 17 hours of treatment at 37°C in 5% CO2 the plates were fixed with 4% formaldehyde and washed with PBS (BioTek ELx405). After 10 minutes in PBS with 0.5% TritonX-100 each plate was washed and blocked with 2% Bovine Serum Albumin in PBS. Nuclei were stained with Hoechst 33342 then washed and placed in 40 µL of PBS with 0.1% sodium azide. Plates were imaged using the ImageXpress Micro epifluorescent scope (Molecular Devices). MetaXpress software was used to quantify total number of cells and IC50s were calculated using Prism (GraphPad).

Assay [1] deals with Trypanosoma brucei brucei strain 427–221. The assay can be described thus: Trypanosome screening assay (CellTiter-Glo ATP bioluminescence, 48 h). Conditions: for IC50: Trypanosoma brucei. Format: cell-based. How it is done:
Trypanosoma brucei brucei strain 427–221 were grown at 37°C, 5% CO2 in HMI-9 medium containing 10% Fetal Bovine Serum, 10% Serum Plus (JRH Inc., Lenexa, KS,USA) and penicillin/streptomycin.
T.b.b. 427–221 were diluted to 2.10^4 per ml in complete HMI-9 medium and aliquoted in Greiner sterile 384-well flat white opaque culture plates using a WellMate cell dispenser from Matrix Tech. (Hudson, NH, USA). Test compounds were serially diluted in dimethyl sulfoxide (DMSO) and added to the assay plates with the robotic dispenser Biomek FXp liquid handler (Beckman Coulter). Thimerosal (2 µM final concentration) was added as a positive control and DMSO as a negative control (1% final concentration). Trypanosomes were incubated with compounds for 48 hours at 37°C with 5% CO2 before monitoring cell viability as previously described. Briefly, trypanosomes were lysed in the wells by adding 25 µL of CellTiter-GloTM (Promega). The lysed trypanosomes were placed on an orbital shaker at room temperature for 2 minutes. After lysis, the resulting ATP-bioluminescence was measured at room temperature using an Analyst HT plate reader (Molecular Devices). Percentage inhibition of parasite growth was calculated for each well as [1−(RLUx−RLU+)/(RLU−−RLU+)]*100 where RLUx, RLU+ and RLU− are respectively the Relative Light Units for each well, positive (thimerosal) and negative (DMSO) controls. A screening window coefficient, denoted Z′ factor, was used to evaluate the performance of the assay. The Z′ factor, calculated as 1−(3σc++3σc−)/(μc+−μc−) where σc+, σc−, μc+ and μc− are respectively the standard deviation and mean values of positive and negative controls, is reflective of the assay signal dynamic range and the data variation associated with signal measurement. IC50's were calculated using Prism (GraphPad).

Another assay relates to T98-G cells. The assay is described as follows: Glioblastoma toxicity screening assay (nuclei count by imaging, 17 h). Format: cell-based. Conditions: Homo sapiens, T98G; Figure 4. As to the method: as §1, with “T98-G cells (ATTC” for “HeLa cells were”, “T98-G cells (ATTC number: CRL-1690) were plated” for “HeLa cells were plated”
Setting [2] is: Figure 4, bloodstream form, read-out: T.b.b IC50.
Setting [3] is: text and Figures 1, 3, bloodstream form, read-out: IC50 against T. brucei brucei.

One may read the IC50 as the concentration needed to halve the response being measured.

In the case of `CC1(C)CCC(=O)[C@@]2(C)OO[C@H]3C[C@@]12CC[C@H]3OC(=O)CC1CCNCC1` [compound 28, (3S,4R,6aS,10aS)-7,7,10a-trimethyl-10-oxooctahydro-3H-3,6a-methanobenzo[c][1,2]dioxocin-4-yl 2-(piperidin-4-yl)acetate], the figures for the half-inhibitory concentration (IC50) (in the assay on HeLa cells; in assay [1] (setting [2]); with T98-G cells) were 21 µM, 0.16 µM and greater than 50 µM, respectively.

Turning to `CC(C)(C)OC(=O)N1CCC(CC(=O)O[C@@H]2CC[C@@]34C[C@@H]2OO[C@]3(C)C(=O)CCC4(C)C)CC1` [compound 27, tert-butyl-4-(2-oxo-2-(((3S,4R,6aS,10aS)-7,7,10a-trimethyl-10-oxooctahydro-3H-3,6a-methanobenzo[c][1,2]dioxocin-4-yl)oxy)ethyl)piperidine-1-carboxylate], the IC50 in the assay with HeLa cells is 33 µM; in assay [1] (setting [2]), 0.16 µM; in the assay with T98-G cells it was greater than 50 µM.

For `CC1(C)CCC(=O)[C@@]2(C)OO[C@H]3C[C@@]12CC[C@H]3OC(=O)c1ccc(N2CCCCC2)nc1` [compound 26, (3S,4R,6aS,10aS)-7,7,10a-trimethyl-10-oxooctahydro-3H-3,6a-methanobenzo[c][1,2]dioxocin-4-yl 6-(piperidin-1-yl)nicotinate], the values for the IC50 (in the assay with HeLa cells; in assay [1] (setting [2]); with T98-G cells) were 24 µM, 0.21 µM and 15 µM, respectively.

As to `CC1(C)CCC(=O)[C@@]2(C)OO[C@H]3C[C@@]12CC[C@H]3OC(=O)c1cccc(-c2ccccc2)c1` [compound 15, (3S,4R,6aS,10aS)-7,7,10a-trimethyl-10-oxooctahydro-3H-3,6a-methanobenzo[c][1,2]dioxocin-4-yl [1,1′-biphenyl]-3-carboxylate], the IC50 in the assay with HeLa cells is greater than 50 µM; in assay [1] (setting [2]), 0.24 µM; with T98-G cells it was greater than 50 µM.

With `CC1(C)CCC(=O)[C@@]2(C)OO[C@H]3C[C@@]12CC[C@H]3OC(=O)c1cc(Cl)sc1Cl` [compound 21, (3S,4R,6aS,10aS)-7,7,10a-trimethyl-10-oxooctahydro-3H-3,6a-methanobenzo[c][1,2]dioxocin-4-yl 2,5-dichlorothiophene-3-carboxylate], the IC50 in the assay with HeLa cells was 21 µM; in assay [1] (setting [2]), 0.54 µM; with T98-G cells, greater than 50 µM.

With `CC1(C)CCC(=O)[C@@]2(C)OO[C@H]3C[C@@]12CC[C@H]3OC(=O)c1ccc2c(c1)OCCO2` [compound 13, (3S,4R,6aS,10aS)-7,7,10a-trimethyl-10-oxooctahydro-3H-3,6a-methanobenzo[c][1,2]dioxocin-4-yl 2,3-dihydrobenzo[b][1,4]dioxine-6-carboxylate], the IC50 in the assay with HeLa cells was 28 µM; in assay [1] (setting [2]), 0.26 µM; in the assay with T98-G cells, greater than 50 µM.

`N=C(N)c1ccc(OCCCCCOc2ccc(C(=N)N)cc2)cc1` [Pentamidine, reference compound]: in assay [1] (Table 3, read-out: T.b.b IC50), the IC50 is 0.03 µM.

As for `CC1(C)CCC(=O)C2(C)OOC3CC12CCC3(O)CO` (stereo not shown) [Merulin B (6), Merulin B], the IC50 in assay [1] (Table 3, read-out: T.b.b IC50) came to 8 µM.

Take `Cc1ncc(C(=O)O[C@@H]2CC[C@@]34C[C@@H]2OO[C@]3(C)C(=O)CCC4(C)C)s1` [compound 18, (3S,4R,6aS,10aS)-7,7,10a-trimethyl-10-oxooctahydro-3H-3,6a-methanobenzo[c][1,2]dioxocin-4-yl 2-methylthiazole-5-carboxylate]: the results for the IC50 (with HeLa cells; in assay [1] (setting [2]); with T98-G cells) were greater than 50 µM, 0.7 µM and greater than 50 µM, respectively.

With `CC1(C)CCC(=O)[C@@]2(C)OO[C@H]3C[C@@]12CC[C@H]3OC(=O)c1ccsc1` [compound 20, (3S,4R,6aS,10aS)-7,7,10a-trimethyl-10-oxooctahydro-3H-3,6a-methanobenzo[c][1,2]dioxocin-4-yl thiophene-3-carboxylate], the IC50 is 16 µM with HeLa cells, 0.33 µM in assay [1] (setting [2]) and greater than 50 µM in the assay with T98-G cells.

Consider `CC1(C)CC[C@@H](O)[C@@]2(C)OO[C@H]3C[C@@]12CC[C@H]3O` [compound 8, (3S,4R,6aS,10R,10aS)-7,7,10a-trimethyloctahydro-3H-3,6a-methanobenzo[c][1,2]dioxocine-4,10-diol], for which, in assay [1] (setting [3]), the IC50 is greater than 50 µM.

With `CC1(C)CCC(=O)[C@@]2(C)OO[C@H]3C[C@@]12CC[C@H]3OC(=O)c1cc(-c2ccccc2)no1` [compound 22, (3S,4R,6aS,10aS)-7,7,10a-trimethyl-10-oxooctahydro-3H-3,6a-methanobenzo[c][1,2]dioxocin-4-yl 3-phenylisoxazole-5-carboxylate], the 50% inhibitory concentration (IC50) with HeLa cells was greater than 50 µM; in assay [1] (setting [2]) it was 0.19 µM; in the assay with T98-G cells it was 20 µM.

On to `Cc1ccc(C(=O)Nc2ccc(S(=O)(=O)O)c3cc(S(=O)(=O)O)cc(S(=O)(=O)O)c23)cc1NC(=O)c1cccc(NC(=O)Nc2cccc(C(=O)Nc3cc(C(=O)Nc4ccc(S(=O)(=O)O)c5cc(S(=O)(=O)O)cc(S(=O)(=O)O)c45)ccc3C)c2)c1` [Suramin, reference compound], for which the IC50 in assay [1] (Table 3, read-out: T.b.b IC50) stood at 0.007 µM.

For `CC1(C)CCC(=O)[C@@]2(C)OO[C@H]3C[C@@]12CC[C@H]3OC(=O)c1ccc(C2CCCCC2)cc1` [compound 16, (3S,4R,6aS,10aS)-7,7,10a-trimethyl-10-oxooctahydro-3H-3,6a-methanobenzo[c][1,2]dioxocin-4-yl 4-cyclohexylbenzoate], the IC50 with HeLa cells is 13 µM; in assay [1] (setting [2]), 0.11 µM; in the assay on T98-G cells it was greater than 50 µM.

On to `CC1(C)C=CC(=O)[C@@]2(C)OO[C@@H]3C[C@]12CCC3(O)CO` (stereo partly shown) [Merulin C (7), Merulin C], for which the IC50 in assay [1] (Table 3, read-out: T.b.b IC50) was 0.8 µM.

Turning to `CC(=O)O[C@@H]1CC[C@@]23C[C@@H]1OO[C@]2(C)C(=O)CCC3(C)C` [compound 10, (3S,4R,6aS,10aS)-7,7,10a-trimethyl-10-oxooctahydro-3H-3,6a-methanobenzo[c][1,2]dioxocin-4-yl acetate], in assay [1] (setting [3]), the half-inhibitory concentration (IC50) came out at 14 µM.

For `CC1(C)CCC(=O)[C@@]2(C)OO[C@H]3C[C@@]12CC[C@H]3OC(=O)CN` [compound 29, (3S,4R,6aS,10aS)-7,7,10a-trimethyl-10-oxooctahydro-3H-3,6a-methanobenzo[c][1,2]dioxocin-4-yl 2-aminoacetate], the IC50 with HeLa cells was greater than 50 µM; in assay [1] (setting [2]) it was greater than 20 µM; in the assay on T98-G cells, greater than 50 µM.

On to `CC1(C)CCC(=O)[C@@]2(C)OO[C@H]3C[C@@]12CC[C@H]3OC(=O)c1cc2ccccc2oc1=O` [compound 14, (3S,4R,6aS,10aS)-7,7,10a-trimethyl-10-oxooctahydro-3H-3,6a-methanobenzo[c][1,2]dioxocin-4-yl 2-oxo-2H-chromene-3-carboxylate], for which the IC50 was greater than 50 µM in the assay on HeLa cells, 0.42 µM in assay [1] (setting [2]) and greater than 50 µM in the assay with T98-G cells.

Turning to `CC1(C)CCC(=O)[C@@](C)(O)[C@]12CC[C@@H](O)[C@@H](O)C2` [compound 9, (1S,6S,8S,9R)-1,8,9-trihydroxy-1,5,5-trimethylspiro[5.5]undecan-2-one], in assay [1] (setting [3]), the half-maximal inhibitory concentration (IC50) was greater than 50 µM. Also, in assay [1] (initial SAR series), the “activity against T. brucei brucei in words” value is “complete loss of activity”.

Regarding `NCCCC(N)(C(=O)O)C(F)F` (stereo not shown) [Eflornithine, reference compound], in assay [1] (Table 3, read-out: T.b.b IC50), the IC50 came to 59 µM.

For the compound `CC(C)(C)C(=O)O[C@@H]1CC[C@@]23C[C@@H]1OO[C@]2(C)C(=O)CCC3(C)C` [compound 11, (3S,4R,6aS,10aS)-7,7,10a-trimethyl-10-oxooctahydro-3H-3,6a-methanobenzo[c][1,2]dioxocin-4-yl pivalate], the IC50 in assay [1] (setting [3]) turned out to be 8 µM.
